Reference: patent US20200115688A1, “COMPOSITIONS AND METHODS FOR ENHANCING GENOME EDITING” (The Regents of the University of California, priority 2017, published 2020)

System: Neural progenitor cells with a tdTomato reporter gene
Assay: Cas9 RNP genome editing in neural progenitor cells pretreated with Bafilomycin A1
Assay type: cell-based
Conditions: cells pretreated 1 hour before Cas9 RNPs added outside the cells; genomic DNA collected after 48 hours, target locus analyzed for Cas9-mediated targeted genomic deletions; FIG. 1
Protocol: Neural progenitor cells with a tdTomato reporter gene were pretreated with Bafilomycin A1 for 1 hour prior to addition of Cas9 RNPs outside of the cells. After 24 hours cells were washed 2× with Heparin to remove any remaining Cas9 RNP outside the cells. After 48 hours genomicDNA was collected and the target locus analyzed for Cas9-mediated targeted genomic deletions.

With `CO/C1=C\C(C)=C\[C@@H](C)[C@@H](O)[C@@H](C)C/C(C)=C/C=C/[C@H](OC)[C@@H]([C@@H](C)[C@@H](O)[C@H](C)[C@@]2(O)C[C@@H](O)[C@H](C)[C@@H](C(C)C)O2)OC1=O` [bafilomycin A1] the “editing efficiency of 0×NLS-Cas9-2×NLS” value was “no effect” and the “editing efficiency of cell penetrating Cas9 RNP, 4×NLS-Cas9-2×NLS” value was “specifically increased”.
